Experimental data: the supplement of paper PMC10307832

What was measured:
Assay in all cases: relative viability (nuclei count vs DMSO), 5 days (fraction); higher = more cells survive
[1] = compound: CC1=CC=C(C=C1)C(=O)CN2C3=C(CCCC3)SC2=N [Pifithrin_alpha] + Cc1nc(NC(=O)N2CCC[C@H]2C(N)=O)sc1-c1ccnc(C(C)(C)C(F)(F)F)c1 [Alpelisib] (partner 2 µM)
Method in brief: (§1)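 Lung cancer cell lines were pin-tool dosed in 1536-well plates on the day after seeding, with either a lone drug or a fixed anchor-drug dose plus five library-drug doses (not always all listed) in √10 steps. Nuclei were counted on 4× images after 5 days. Relative viability is the ratio of treated-well to vehicle-well nuclei counts, with each value a median of duplicate plates.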

Axitinib + Phenformin = compound: CNC(=O)c1ccccc1Sc1ccc2c(/C=C/c3ccccn3)n[nH]c2c1 [Axitinib] + N=C(N)NC(=N)NCCc1ccccc1 [Phenformin] (partner 250 µM)
Method in brief: as §1

Axitinib + Decitabine = compound: CNC(=O)c1ccccc1Sc1ccc2c(/C=C/c3ccccn3)n[nH]c2c1 [Axitinib] + Nc1ncn([C@H]2C[C@H](O)[C@@H](CO)O2)c(=O)n1 [Decitabine] (partner 2 µM)
Method in brief: as §1

Bemcentinib + OSI-027 = compound: Nc1nc(Nc2ccc3c(c2)CC[C@@H](N2CCCC2)CC3)nn1-c1cc2c(nn1)-c1ccccc1CCC2 [Bemcentinib] + COc1cccc2cc(-c3nc([C@H]4CC[C@H](C(=O)O)CC4)n4ncnc(N)c34)[nH]c12 [OSI-027] (partner 0.5 µM)
Method in brief: as §1

Cell Line: NCI-H650
- relative viability ([1]; first compound 3.162 µM): 1.12
- relative viability ([1]; first compound 10 µM): 1.13
- relative viability ([1]; first compound 31.62 µM): 0.755
- relative viability ([1]; first compound 100 µM): 1.09
- relative viability (Axitinib + Phenformin; first compound 0.005 µM): 0.462
- relative viability (Axitinib + Phenformin; first compound 0.01581 µM): 0.434
- relative viability (Axitinib + Phenformin; first compound 0.05 µM): 0.483
- relative viability (Axitinib + Phenformin; first compound 0.1581 µM): 0.424
- relative viability (Axitinib + Phenformin; first compound 0.5 µM): 0.471
- relative viability (Axitinib + Decitabine; first compound 0.005 µM): 0.287
- relative viability (Axitinib + Decitabine; first compound 0.01581 µM): 0.335
- relative viability (Axitinib + Decitabine; first compound 0.05 µM): 0.289
- relative viability (Axitinib + Decitabine; first compound 0.1581 µM): 0.31
- relative viability (Axitinib + Decitabine; first compound 0.5 µM): 0.306
- relative viability (Bemcentinib + OSI-027; first compound 0.04 µM): 0.468
- relative viability (Bemcentinib + OSI-027; first compound 0.1265 µM): 0.501
- relative viability (Bemcentinib + OSI-027; first compound 0.4 µM): 0.582
- relative viability (Bemcentinib + OSI-027; first compound 1.265 µM): 0.496
- relative viability (Bemcentinib + OSI-027; first compound 4 µM): 0.512
